This note sets out measurements from ChEMBL document CHEMBL1135087, “Synthesis and biological evaluation of novel thio-substituted chromanes as high-affinity partial agonists for the estrogen receptor” (Bioorg Med Chem Lett, 2002).

One assay has as its system Ishikawa. As to the kind of experiment: cells. Conditions: Homo sapiens.
Assay [1] deals with T1, Estrogen receptor (Homo sapiens, UniProt Q92731+P03372).
The target in assay [2] is T1, Estrogen receptor. Description: Displacement of [3H]17-beta-estradiol from Estrogen receptor of rabbit uterine tissue. Type of assay: protein assay, Oryctolagus cuniculus. Conditions: target entry is the homologue from another species.

Description for Ishikawa: Stimulation of alkaline phosphatase activity in Ishikawa human endometrial adenocarcinoma cells

In the assay on Ishikawa, `Oc1ccc2c(c1)OC[C@H](c1ccccc1)[C@@H]2c1ccc(OCCN2CCCC2)cc1` (racemic) displayed an EC50 of 0.9 nM. The compound further yielded an IC50 against Estrogen receptor [1] of 19 nM. For `O=C(c1ccc(OCCN2CCCCC2)cc1)c1c(-c2ccc(O)cc2)sc2cc(O)ccc12` [RALOXIFENE], a half-maximal response with Ishikawa (EC50) required 0.04 nM. In the case of `Oc1ccc2c(c1)OC[C@H](c1ccccc1)[C@@H]2c1ccc(SCCN2CCCCC2)cc1` (racemic), the EC50 in the assay with Ishikawa is 1.8 nM. Besides, the IC50 on Estrogen receptor [1] was determined as 9.7 nM.

With `CC/C(=C(\c1ccc(I)cc1)c1ccc(OCCN2CCCC2)cc1)c1ccccc1` [IDOXIFENE], the EC50 in the assay with Ishikawa was found to be 7 nM. This compound yielded an IC50 against Estrogen receptor [1] of 7.5 nM. Take `C#C[C@]1(O)CC[C@H]2C3CCc4cc(O)ccc4[C@H]3[C@@H](OC)C[C@@]21C` (single isomer, unassigned) [MOXESTROL]: the IC50 on Estrogen receptor [2] is given as 2.9 nM. Moreover, the EC50 in the assay with Ishikawa is 0.08 nM. `Cl.Oc1ccc2c(c1)OC[C@H](c1ccccc1)[C@@H]2c1ccc(SCCN2CCCC2)cc1` (racemic): in the assay with Ishikawa, the 50% effective concentration (EC50) turned out to be 0.5 nM. At Estrogen receptor [1], this compound displayed an IC50 of 6.5 nM.

As to `Oc1ccc2c(c1)OC[C@H](c1ccccc1)[C@@H]2c1ccc(OCCN2CCCCC2)cc1` (racemic), in the assay on Ishikawa, the midpoint of the response, the EC50, lay at 0.7 nM. The same compound registered an IC50 against Estrogen receptor [1] of 3.1 nM.

In the assay on Ishikawa, `COc1ccc2c(c1)OC(C)(C)[C@@H](c1ccccc1)[C@@H]2c1ccc(OCCN2CCCC2)cc1` [LEVORMELOXIFENE] showed an EC50 of 13 nM. The same compound had an IC50 against Estrogen receptor [1] of 73 nM.
